Target: JAK1 (Homo sapiens, UniProt P23458)
Test: Biochemical Kinase Assay (JAK), 33P-ATP filter-binding
Settings: Biochemical Kinase Inhibition Assay; potency level of IC50; read-out: JAK1 (range)
Description: Biochemical Kinase Assay Protocol (JAK) • Reagent: Base Reaction buffer; 20 mM Hepes (pH 7.5), 10 mM MgCl2, 1 mM EGTA, 0.02% Brij™ 35, 0.02 mg/ml BSA, 0.1 mM Na3VO4, 2 mM DTT, 1% DMSO, where required cofactors were added individually to each kinase reaction.
Reaction Procedure: • 1. Prepared indicated substrate in freshly prepared Base Reaction Buffer • 2. Delivered any required cofactors to the substrate solution above • 3. Delivered indicated kinase into the substrate solution and gently mix • 4. Delivered compounds in DMSO into the kinase reaction mixture by Acoustic technology (Echo550; nanoliter range), incubated for 20 minutes at room temperature • 5. Delivered 33P-ATP into the reaction mixture to initiate the reaction. • 6. Incubated kinase reaction for 2 hours at room temperature • 7. Reactions were spotted onto P81 ion exchange paper • 8. Detected kinase activity by filter-binding method.
Compounds according to the present invention were tested in the Biochemical Kinase Assay Protocol. The results are provided below in Table 1, wherein the potency levels A, B, and C in the columns labeled JAK1 (range) correspond to IC50 as follows: A<10 nM; B=10-50 nM and C>50 nM. The Example Number entries formatted ##a represent stereoisomer one and entries formatted ##b represent stereoisomer two.

Chain of JAK1 (P23458 whole entry, species assumed): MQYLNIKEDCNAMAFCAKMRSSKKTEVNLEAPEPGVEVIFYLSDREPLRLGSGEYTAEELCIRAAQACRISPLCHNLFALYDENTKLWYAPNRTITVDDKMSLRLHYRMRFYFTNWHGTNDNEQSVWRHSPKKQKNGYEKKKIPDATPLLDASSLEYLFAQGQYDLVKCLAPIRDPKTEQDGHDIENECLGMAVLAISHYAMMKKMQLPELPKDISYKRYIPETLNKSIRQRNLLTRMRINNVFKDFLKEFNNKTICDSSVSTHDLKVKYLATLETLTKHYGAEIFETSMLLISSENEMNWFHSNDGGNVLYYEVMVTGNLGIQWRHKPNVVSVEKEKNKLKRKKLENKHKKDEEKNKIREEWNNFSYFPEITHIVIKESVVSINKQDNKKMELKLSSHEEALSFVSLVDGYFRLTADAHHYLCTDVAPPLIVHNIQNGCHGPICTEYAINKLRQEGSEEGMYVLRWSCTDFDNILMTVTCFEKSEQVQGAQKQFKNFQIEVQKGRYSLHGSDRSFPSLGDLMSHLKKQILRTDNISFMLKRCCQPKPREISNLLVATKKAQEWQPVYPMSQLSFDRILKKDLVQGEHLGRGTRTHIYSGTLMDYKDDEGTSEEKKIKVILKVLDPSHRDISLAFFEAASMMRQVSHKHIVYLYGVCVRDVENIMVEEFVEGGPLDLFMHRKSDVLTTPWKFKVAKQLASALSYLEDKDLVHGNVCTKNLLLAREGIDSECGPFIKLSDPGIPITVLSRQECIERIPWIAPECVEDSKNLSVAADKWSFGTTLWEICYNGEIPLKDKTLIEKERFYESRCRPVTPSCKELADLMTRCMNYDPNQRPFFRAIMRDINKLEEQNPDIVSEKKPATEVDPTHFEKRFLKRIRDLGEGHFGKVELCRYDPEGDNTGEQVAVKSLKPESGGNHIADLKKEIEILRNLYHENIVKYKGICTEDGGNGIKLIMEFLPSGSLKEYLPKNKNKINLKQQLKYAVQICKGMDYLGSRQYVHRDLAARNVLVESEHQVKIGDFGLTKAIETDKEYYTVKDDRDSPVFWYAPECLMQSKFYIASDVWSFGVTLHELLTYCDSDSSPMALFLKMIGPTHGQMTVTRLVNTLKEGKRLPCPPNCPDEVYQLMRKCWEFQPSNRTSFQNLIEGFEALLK

IC50 | SMILES
< 10 nM | N#C[C@@H]1CCCC[C@H]1n1cc(C(N)=O)c(Nc2ccc3c(c2)C=CB(O)O3)n1 (relative stereo) [Example 18, 1-(trans-2-cyanocyclohexyl)-3-[(2-hydroxy-1,2-benzoxaborinin-6-yl)amino]pyrazole-4-carboxamide]
< 10 nM | CC(C)C1=Cc2cc(Nc3nn([C@@H]4COCC[C@H]4C#N)cc3C(N)=O)ccc2OB1O (single isomer, unassigned) [Example 48b, 1-(trans-4-cyanotetrahydro-2H-pyran-3-yl)-3-((2-hydroxy-3-isopropyl-2H-benzo[e][1,2]oxaborinin-6-yl)amino)-1H-pyrazole-4-carboxamide]
10 to 50 nM | N#C[C@@H]1CCOC[C@H]1n1cc(C(N)=O)c(Nc2cc(F)c3c(c2)B(O)OC3)n1 (relative stereo) [Example 1, 1-[trans-4-cyanotetrahydro-2H-pyran-3-yl]-3-[(4-fluoro-1-hydroxy-3H-2,1-benzoxaborol-6-yl)amino]pyrazole-4-carboxamide]
< 10 nM | CC(C)C1=Cc2cc(Nc3nn([C@@H]4CCC[C@H]4C#N)cc3C(N)=O)ccc2OB1O (relative stereo) [Example 50, 1-(trans-2-cyanocyclopentyl)-3-[(2-hydroxy-3-isopropyl-1,2-benzoxaborinin-6-yl)amino]pyrazole-4-carboxamide]
< 10 nM | N#C[C@@H]1CCOC[C@H]1n1cc(C(N)=O)c(Nc2ccc3c(c2)B(O)OCC3)n1 (single isomer, unassigned) [Example 42b, 1-[trans-4-cyanotetrahydro-2H-pyran-3-yl]-3-[(1-hydroxy-3,4-dihydro-2,1-benzoxaborinin-7-yl)amino]pyrazole-4-carboxamide]
< 10 nM | CCC1=CB(O)Oc2ccc(Nc3nn([C@@H]4COCC[C@H]4C#N)cc3C(N)=O)cc21 (relative stereo) [Example 33, 1-(trans-4-cyanotetrahydro-2H-pyran-3-yl)-3-[(4-ethyl-2-hydroxy-1,2-benzoxaborinin-6-yl)amino]pyrazole-4-carboxamide]
< 10 nM | N#C[C@@H]1CCOC[C@H]1n1cc(C(N)=O)c(Nc2ccc3c(c2)C=C(CCO)B(O)O3)n1 (relative stereo) [Example 22, 1-[trans-4-cyanooxan-3-yl]-3-{[2-hydroxy-3-(2-hydroxyethyl)-2H-1,2-benzoxaborinin-6-yl]amino}-1H-pyrazole-4-carboxamide]
< 10 nM | CC1=C(C)c2cc(Nc3nn([C@@H]4COCC[C@H]4C#N)cc3C(N)=O)cc(C)c2OB1O (single isomer, unassigned) [Example 23a, 1-[trans-4-cyanotetrahydro-2H-pyran-3-yl]-3-[(2-hydroxy-3,4,8-trimethyl-1,2-benzoxaborinin-6-yl)amino]pyrazole-4-carboxamide]
10 to 50 nM | CC1=C(C)c2cc(Nc3nn([C@@H]4CCCC[C@H]4C#N)cc3C(N)=O)cc(C)c2OB1O (relative stereo) [Example 25, 1-(trans-2-cyanocyclohexyl)-3-[(2-hydroxy-3,4,8-trimethyl-1,2-benzoxaborinin-6-yl)amino]pyrazole-4-carboxamide]
< 10 nM | N#CC1CCOCC1n1cc(C(N)=O)c(Nc2ccc3c(c2)C(Cl)=CB(O)O3)n1 (stereo not drawn) [Example 43, 3-[(4-chloro-2-hydroxy-1,2-benzoxaborinin-6-yl)amino]-1-[trans-4-cyanotetrahydro-2H-pyran-3-yl]pyrazole-4-carboxamide]
< 10 nM | CC1=CB(O)Oc2c(C)cc(Nc3nn([C@@H]4COCC[C@H]4C#N)cc3C(N)=O)cc21 (single isomer, unassigned) [Example 47a, 1-[trans-4-cyanotetrahydro-2H-pyran-3-yl]-3-[(2-hydroxy-4,8-dimethyl-1,2-benzoxaborinin-6-yl)amino]pyrazole-4-carboxamide]
10 to 50 nM | CC(C)C1=CB(O)Oc2ccc(Nc3nn([C@@H]4CCCC[C@H]4C#N)cc3C(N)=O)cc21 (relative stereo) [Example 34, 1-(trans-2-cyanocyclohexyl)-3-[(2-hydroxy-4-isopropyl-1,2-benzoxaborinin-6-yl)amino]pyrazole-4-carboxamide]
10 to 50 nM | N#C[C@@H]1CCOC[C@H]1n1cc(C(N)=O)c(Nc2cc3c(cc2F)OB(O)C=C3)n1 (relative stereo) [Example 29, 1-(trans-4-cyanotetrahydro-2H-pyran-3-yl)-3-[(7-fluoro-2-hydroxy-1,2-benzoxaborinin-6-yl)amino]pyrazole-4-carboxamide]
10 to 50 nM | Cc1cc(Nc2nn([C@@H]3COCC[C@H]3C#N)cc2C(N)=O)cc2c1OB(O)C=C2 (single isomer, unassigned) [Example 27a, 1-[trans-4-cyanotetrahydropyran-3-yl]-3-[(2-hydroxy-8-methyl-1,2-benzoxaborinin-6-yl)amino]pyrazole-4-carboxamide]
< 10 nM | CC(C)C1=Cc2cc(Nc3nn(C4COCCC4C#N)cc3C(N)=O)ccc2OB1O (stereo not drawn) [Example 48, 1-(trans-4-cyanotetrahydro-2H-pyran-3-yl)-3-((2-hydroxy-3-isopropyl-2H-benzo[e][1,2]oxaborinin-6-yl)amino)-1H-pyrazole-4-carboxamide]
< 10 nM | CC1=Cc2cc(Nc3nn([C@@H]4CCCC[C@H]4C#N)cc3C(N)=O)ccc2OB1O (relative stereo) [Example 26, 1-[trans-2-cyanocyclohexyl]-3-[(2-hydroxy-3-methyl-1,2-benzoxaborinin-6-yl)amino]pyrazole-4-carboxamide]
10 to 50 nM | CC1=CB(O)Oc2ccc(Nc3nn(C4COCCC4C#N)cc3C(N)=O)cc21 (single isomer, unassigned) [Example 3b, 1-[trans-4-cyanotetrahydropyran-3-yl]-3-[(2-hydroxy-4-methyl-1,2-benzoxaborinin-6-yl)amino]pyrazole-4-carboxamide (stereoisomer two)]
< 10 nM | N#CC1CCOCC1n1cc(C(N)=O)c(Nc2ccc3c(c2)B(O)OC3)n1 (stereo not drawn) [Example 16, 1-(trans-4-cyanotetrahydro-2H-pyran-3-yl)-3-((1-hydroxy-1,3-dihydrobenzo[c][1,2]oxaborol-6-yl)amino)-1H-pyrazole-4-carboxamide]
< 10 nM | N#C[C@@H]1CCOC[C@H]1n1cc(C(N)=O)c(Nc2ccc3c(c2)CCOB3O)n1 (relative stereo) [Example 7, 1-(trans-4-cyanotetrahydro-2H-pyran-3-yl)-3-((1-hydroxy-3,4-dihydro-1H-benzo[c][1,2]oxaborinin-6-yl)amino)-1H-pyrazole-4-carboxamide]
10 to 50 nM | CC1=C(C)c2cc(Nc3nn([C@@H]4CCC[C@H]4C#N)cc3C(N)=O)cc(C)c2OB1O (relative stereo) [Example 24, 1-(trans-2-cyanocyclopentyl)-3-[(2-hydroxy-3,4,8-trimethyl-1,2-benzoxaborinin-6-yl)amino]pyrazole-4-carboxamide]
> 50 nM | CC1=C(C)c2cc(Nc3nn([C@@H]4COCC[C@H]4C#N)cc3C(N)=O)cc(C)c2OB1O (single isomer, unassigned) [Example 23b, 1-[trans-4-cyanotetrahydro-2H-pyran-3-yl]-3-[(2-hydroxy-3,4,8-trimethyl-1,2-benzoxaborinin-6-yl)amino]pyrazole-4-carboxamide]
< 10 nM | CC1=CB(O)Oc2ccc(Nc3nn(C4COCCC4C#N)cc3C(N)=O)cc21 (stereo not drawn) [Example 3, 1-[trans-4-cyanotetrahydro-2H-pyran-3-yl]-3-[(2-hydroxy-4-methyl-1,2-benzoxaborinin-6-yl)amino]pyrazole-4-carboxamide]
< 10 nM | N#C[C@@H]1CCOC[C@H]1n1cc(C(N)=O)c(Nc2cc(F)c3c(c2)C=CB(O)O3)n1 (single isomer, unassigned) [Example 44b, 1-[trans-4-cyanotetrahydro-2H-pyran-3-yl]-3-[(8-fluoro-2-hydroxy-1,2-benzoxaborinin-6-yl)amino]pyrazole-4-carboxamide]
> 50 nM | N#C[C@@H]1CCOC[C@H]1n1cc(C(N)=O)c(Nc2ccc3c(c2)B(O)OC3)n1 (single isomer, unassigned) [Example 16a, 1-(trans-4-cyanotetrahydro-2H-pyran-3-yl)-3-((1-hydroxy-1,3-dihydrobenzo[c][1,2]oxaborol-6-yl)amino)-1H-pyrazole-4-carboxamide]
< 10 nM | CC(C)C1=Cc2cc(Nc3nn([C@@H]4COCC[C@H]4C#N)cc3C(N)=O)ccc2OB1O (single isomer, unassigned) [Example 48a, 1-(trans-4-cyanotetrahydro-2H-pyran-3-yl)-3-((2-hydroxy-3-isopropyl-2H-benzo[e][1,2]oxaborinin-6-yl)amino)-1H-pyrazole-4-carboxamide]
< 10 nM | N#C[C@@H]1CCOC[C@H]1n1cc(C(N)=O)c(Nc2cc(Cl)c3c(c2)COB3O)n1 (single isomer, unassigned) [Example 52a, 3-((7-chloro-1-hydroxy-1,3-dihydrobenzo[c][1,2]oxaborol-5-yl)amino)-1-(trans-4-cyanotetrahydro-2H-pyran-3-yl)-1H-pyrazole-4-carboxamide]
> 50 nM | Cc1cc2c(cc1Nc1nn([C@@H]3COCC[C@H]3C#N)cc1C(N)=O)C=CB(O)O2 (single isomer, unassigned) [Example 46b, 1-(trans-4-cyanotetrahydro-2H-pyran-3-yl)-3-((2-hydroxy-7-methyl-2H-benzo[e][1,2]oxaborinin-6-yl)amino)-1H-pyrazole-4-carboxamide]

Source: patent US11827657B2, “Boron containing pyrazole compounds, compositions comprising them, methods and uses thereof” (BOEHRINGER INGELHEIM ANIMAL HEALTH USA INC., priority 2020, dated 2023)
